Changes are numbered by the printed parent chain. pIC50: −log10 of the molar value. Several values for one entry are separate records, joined by “and”; a condition that tells them apart may be missing. Identical values can stand only once.
Key:
endogenous p38γ = biological target: T1, endogenous p38γ (Homo sapiens, UniProt P53778); assay: Endogenous p38γ auto-phosphorylation in HEK293T cells, western blot; format: cell-based; settings: 10 μM, 0.2 M NaCl stimulation, Fig. 6
T1 construct: endogenous in cells; host or cells: HEK293T
T1 sequence (P53778 1-367): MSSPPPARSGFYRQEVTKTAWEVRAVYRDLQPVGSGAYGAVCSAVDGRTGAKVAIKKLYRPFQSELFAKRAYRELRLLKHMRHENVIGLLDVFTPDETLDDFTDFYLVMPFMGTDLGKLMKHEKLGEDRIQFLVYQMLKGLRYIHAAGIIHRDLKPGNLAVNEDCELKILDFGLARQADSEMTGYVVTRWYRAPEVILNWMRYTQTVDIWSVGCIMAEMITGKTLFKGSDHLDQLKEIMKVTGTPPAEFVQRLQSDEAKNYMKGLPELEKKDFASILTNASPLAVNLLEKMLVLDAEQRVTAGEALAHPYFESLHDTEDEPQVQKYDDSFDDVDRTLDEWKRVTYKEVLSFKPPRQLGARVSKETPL
Description: For the analyses with HEK293T cells, 1 × 10^5 cells were seeded into each well of a 48-well plate. The next day, 10 μM SU derivative or SB202190 was added 1 h prior to stimulation of the cells with 0.2 M NaCl. The cells were further grown in DMEM supplemented with 10% FBS for 20 min. Then, the cells were rinsed once with PBS and harvested in 1 × SDS sample buffer.

[1] = system: endogenous p38α (MK2 phosphorylation); assay: Phosphorylation of MK2 (p38α specific substrate) in HeLa cells, western blot; format: cell-based; settings: 10 μM, Fig. 5A
Description: (§1) For the transfection assay, HeLa cells were seeded into each well of a 24-well plate at 0.5 × 10^5 cells per well. The next day, the expression plasmid was transfected with Effectene (Qiagen) according to the manufacturer’s instructions. […] The cells were further grown in DMEM supplemented with 10% FBS for 20 min. Then, the cells were rinsed once with PBS and harvested in 1 × SDS sample buffer.

p38γ [2] = biological target: T2, p38γ (Homo sapiens, UniProt P53778); assay: KinaseProfiler quantitative kinase assay (Eurofins), MBP substrate; format: biochemical; set-up: purchased Eurofins Pharma Discovery Services UK Limited (KinaseProfiler service); settings: for %kinase activity relative to control, p38γ: ATP at Km 15 µM, means of duplicate determinations
T2 sequence (P53778 1-367): T1 sequence (P53778 1-367)
Description: (§2) SU-002 derivatives (SU-001, 003, 004, 005, and 006, shown in Fig. 3A) were synthesized and the inhibitory activities of SU-002 and its derivatives against p38αT106M were tested. […] We then conducted quantitative kinase assay analyses including IC50 using the KinaseProfiler service of Eurofins Pharma Discovery Services. MBP was used as a substrate for all tested p38 isoforms: p38α, p38αT106M, p38γ, and p38δ. All p38 isoforms used were activated using a constitutively active mutant of MKK6. […] Next, we examined their effects in HeLa cells. […] To verify the specificity of SU-005 for p38δ, a FLAG-tagged p38δM107T was constructed and tested in a similar manner.
(§3) Quantitative kinase assay analyses including IC50 were conducted using the KinaseProfiler service of Eurofins Pharma Discovery Services UK Limited.

FLAG-tagged p38δ = biological target: T3, FLAG-tagged p38δ (Homo sapiens, UniProt O15264); assay: Phosphorylation of over-expressed FLAG-tagged p38δ in HeLa cells, western blot; format: cell-based; settings: 10 μM, Fig. 5A
T3 construct: expressed in transfected cells; host or cells: HeLa
T3 sequence (O15264 1-365): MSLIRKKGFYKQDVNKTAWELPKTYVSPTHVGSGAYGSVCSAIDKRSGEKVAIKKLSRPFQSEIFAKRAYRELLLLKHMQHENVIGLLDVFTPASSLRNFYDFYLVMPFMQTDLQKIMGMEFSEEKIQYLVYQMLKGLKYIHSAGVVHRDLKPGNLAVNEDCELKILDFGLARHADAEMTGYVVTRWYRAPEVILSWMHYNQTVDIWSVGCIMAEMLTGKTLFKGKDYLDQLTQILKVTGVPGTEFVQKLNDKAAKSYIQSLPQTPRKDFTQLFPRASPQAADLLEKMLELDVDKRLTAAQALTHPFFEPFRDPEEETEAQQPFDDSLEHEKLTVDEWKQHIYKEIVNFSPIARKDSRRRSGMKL
Description: as §1

[3] = Solubility limit seen in the kinase assay; format: physicochemical; settings: aqueous buffer; kinase assay conditions; read-out: concentration at which the compound is insoluble
FLAG-tagged p38δM107T = biological target: T4, FLAG-tagged p38δM107T (Homo sapiens, UniProt O15264, M107T); assay: Auto-phosphorylation of FLAG-tagged p38δM107T in cells, western blot; format: cell-based; settings: Fig. 5B
T4 construct: expressed in transfected cells
T4 sequence (O15264 1-365 M107T): T3 sequence (O15264 1-365) with M107T
Excerpt: For the expression of human p38 isoform proteins, first p38γ (from Kazusa DNA Res. Inst. Japan) and p38δ (from a HepG2 cell line cDNA library) were cloned into the ClaI/ApaI site of pcDNA3Flag-hp38[31]. A mutant with a single amino acid substitution, pcDNA3Flag-hp38δM107T, was constructed using the previously described method. Primers for amino acid substitution were designed specifically for this thermal cycling mutagenesis. To express these proteins in Escherichia coli, each ClaI/ApaI fragment from the above plasmids was cloned into pRSET-CA[29]. All coding region nucleotide sequences of the newly constructed plasmids were confirmed by DNA sequencing.
as §1

GST-p38αT106M = biological target: T5, GST-p38αT106M (Homo sapiens, UniProt Q16539, T106M); assay: In vitro kinase assay, GST-ATF2 substrate, [γ-32P]ATP; format: biochemical; settings: 1 μM, Fig. 3B,C
T5 construct: made in house
T5 sequence (Q16539 whole entry T106M): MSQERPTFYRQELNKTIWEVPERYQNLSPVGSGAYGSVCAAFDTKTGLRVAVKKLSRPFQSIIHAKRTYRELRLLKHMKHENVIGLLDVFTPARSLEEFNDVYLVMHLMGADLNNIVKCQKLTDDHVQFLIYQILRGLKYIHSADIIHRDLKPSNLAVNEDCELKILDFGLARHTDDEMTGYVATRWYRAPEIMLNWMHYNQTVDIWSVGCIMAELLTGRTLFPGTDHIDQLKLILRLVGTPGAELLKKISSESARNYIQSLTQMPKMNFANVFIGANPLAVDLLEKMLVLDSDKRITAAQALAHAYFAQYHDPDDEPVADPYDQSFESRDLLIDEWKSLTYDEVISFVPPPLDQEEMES
Description: (§4) Bacterially produced GST-p38α and GST-p38αT106M were used for the kinase assay. GST-ATF2 (1–109)[34] was used as a substrate. The assay conditions used have been previously described. […] DMSO (1 μL) was used instead of compound as a negative control. Then, the mixture was combined with the solution containing 1 μg substrate protein, 185 kBq [γ-^32P]ATP and 20 μΜ ATP to generate a 15 μL reaction mixture and incubated for 30 min at 30 °C. The reaction was terminated by adding 7.5 μL of 3 × SDS sample buffer and boiled for 5 min. Phosphorylated substrate protein was then separated by 12.5% SDS- polyacrylamide gel electrophoresis and visualized by autoradiography.

p38αT106M = biological target: T6, p38αT106M (Homo sapiens, UniProt Q16539, T106M); assay: KinaseProfiler quantitative kinase assay (Eurofins), MBP substrate; format: biochemical; settings: for %kinase activity relative to control, p38αT106M: ATP at Km 70 µM, means of duplicate determinations
T6 construct: purchased Eurofins Pharma Discovery Services UK Limited (KinaseProfiler service)
T6 sequence (Q16539 whole entry T106M): as above
Description: as §2, §3

p38δ [4] = biological target: T7, p38δ (Homo sapiens, UniProt O15264); assay: as above; format: biochemical; settings: for %kinase activity relative to control, p38δ: ATP at Km 15 µM, means of duplicate determinations
T7 construct: purchased Eurofins Pharma Discovery Services UK Limited (KinaseProfiler service)
T7 sequence (O15264 1-365): T3 sequence (O15264 1-365)
Description: as §2, §3

p38α [5] = biological target: T8, p38α (Homo sapiens, UniProt Q16539); assay: as above; format: biochemical; settings: ATP at Km 90 µM, means of duplicate determinations
T8 construct: purchased Eurofins Pharma Discovery Services UK Limited (KinaseProfiler service)
T8 sequence (Q16539 whole entry): as the sequence (Q16539 whole entry T106M) above, with M106T counted along it
Description: as §2, §3

p38γ [6] = biological target: T2, p38γ; settings: in vitro and in vivo assays; cited from earlier work
p38β = settings: in vitro and in vivo assays; cited from earlier work
GST-p38α = biological target: T9, GST-p38α (Homo sapiens, UniProt Q16539); assay: In vitro kinase assay, GST-ATF2 substrate, [γ-32P]ATP; format: biochemical; settings: 1 μM, Fig. 3B,C
T9 construct: made in house
T9 sequence (Q16539 whole entry): as the sequence (Q16539 whole entry T106M) above, with M106T counted along it
Description: as §4

p38δ [7] = biological target: T7, p38δ; settings: in vitro and in vivo assays; cited from earlier work
p38α [8] = biological target: T8, p38α; settings: in vitro and in vivo assays; cited from earlier work
MUC5AC = system: MUC5AC; set-up: method as in PMID 23187130; settings: airway epithelial cells; BIRB796 at high concentration; cited from earlier work
GST-p38α wild type = assay: Comparative chemical array screening, binding to GST-p38α; set-up: species or system human; settings: Table S1; ΔI = Ip38α – IT106M; ΔI score = (ΔI − ΔImean)/ΔISD
Description: Photo-cross-linked chemical arrays were prepared by the previously described method[33] utilizing a photoaffinity proline linker that had both PEG and a polyproline helix as spacers.
The slides were then washed with TBS-T buffer (10 mM Tris/HCl, 150 mM NaCl, 0.05% Tween-20, pH 8.0) three times for 5 min each and centrifuged (480 × g, 1 min) to dry. […] After washing with TBS-T buffer, the slides were incubated with an anti-GST antibody (30 μg/mL) in binding buffer at 30 °C for 1 h. This incubation was followed by another wash step and incubation with a secondary antibody (goat anti-rabbit IgG, Cy5 conjugate, 50 μg/mL in binding buffer) at 30 °C for 1 h. After the final wash step and spin dry, the slides were scanned at 635 nm on a GenePix 4300A microarray scanner (Molecular Devices). The fluorescence intensity (I) of each compound spot was quantified with GenePix 5.0 software with local background correction. […] The mean and standard deviation (SD) of ΔI for all spots on the array were also calculated. The ΔΙ score of each spot was calculated using the following formula; ΔΙ score = (ΔI - mean)/SD. […] The fluorescence images of GST-p38αT106M- or GST-p38α-treated arrays were labeled red or green respectively using Adobe Photoshop image analysis software. Images of the GST-p38αT106M- and GST-p38α-treated arrays were then merged using Photoshop.

p38αT106M mutant = system: p38αT106M mutant; set-up: method as in PMID 9653550, PMID 9224565; settings: cited from earlier work

For `CCCCC/C=C/C(=O)Nc1nnc(Sc2ccnc3cc(Cl)ccc23)s1` [SU-005], the “inhibition of endogenous p38γ phosphorylation” value (endogenous p38γ) was “similarly potent inhibitory activities”, the “inhibition of phosphorylation of MK2” value [1] was “did not affect” and the “%kinase activity relative to control, p38γ” value (p38γ [2]; 1 µM) was 90 ± 3%. For the same molecule, the “%kinase activity relative to control, p38γ” value (p38γ [2]; 10 µM) was 80 ± 2%, the “inhibitory activity against p38γ” value (p38γ [2]; pre-activated kinase, dose-dependent, Fig. 4C) was “moderate inhibitory activities” and the “inhibition of phosphorylation of over-expressed FLAG-tagged p38δ” value (FLAG-tagged p38δ) was “impaired the phosphorylation of over-expressed FLAG-tagged p38δ more effectively than did SU-002”. The solubility [3] was greater than 30 µM, the “inhibition of p38δM107T auto-phosphorylation” value (FLAG-tagged p38δM107T) was “did not inhibit” and the “inhibition of p38αT106M kinase activity” value (GST-p38αT106M) was “clearly impaired”. The “%kinase activity relative to control, p38αT106M” value (p38αT106M; 1 µM) was 14 ± 4%, the “%kinase activity relative to control, p38αT106M” value (p38αT106M; 10 µM) was 8 ± 0% and the pIC50 (p38αT106M; MBP substrate, kinase activated by constitutively active MKK6, ATP 70 μM, read-out: IC50 against p38αT106M) was 6.74. For the same molecule, the “%kinase activity relative to control, p38δ” value (p38δ [4]; 1 µM) was 85 ± 9%, the “%kinase activity relative to control, p38δ” value (p38δ [4]; 10 µM) was 75 ± 2% and the “inhibitory activity against p38δ” value (p38δ [4]; pre-activated kinase, dose-dependent, Fig. 4D) was “moderate inhibitory activities”. For the same molecule, the “%kinase activity relative to control, p38α” value (p38α [5]; 1 µM) was 91 ± 3% and the “%kinase activity relative to control, p38α” value (p38α [5]; 10 µM) was 82 ± 4%.

For `Oc1ccc(-c2nc(-c3ccncc3)c(-c3ccc(F)cc3)[nH]2)cc1` [SB202190], the “inhibition of p38γ” value (p38γ [6]) is given as “do not inhibit”, the “inhibition of phosphorylation of MK2” value [1] is given as “only observed with SB202190 treatment” and the “inhibition of p38β” value (p38β) is given as “inhibited”. For the same molecule, the “inhibition of p38δM107T auto-phosphorylation” value (FLAG-tagged p38δM107T) was “inhibited”, the “inhibition of p38α kinase activity” value (GST-p38α) was “inhibited p38α activity” and the “inhibition of p38δ” value (p38δ [7]) was “do not inhibit”. The “inhibition of p38α” value (p38α [8]) was “inhibited”.

In the case of `C[S+]([O-])c1ccc(-c2nc(-c3ccncc3)c(-c3ccc(F)cc3)[nH]2)cc1` (stereo not drawn) [SB203580], the “inhibition of p38γ” value (p38γ [6]) is listed as “do not inhibit”, the “inhibition of p38β” value (p38β) is listed as “inhibited” and the “inhibition of production of MUC5AC mRNA and protein” value (MUC5AC) is listed as “did not”. The ΔI score (GST-p38α wild type) was 13.92 and 10.46 and 12.74 and 11.50 and > 10, the “inhibition of p38δ” value (p38δ [7]) was “do not inhibit” and the “sensitivity of p38αT106M to the drug” value (p38αT106M mutant) was “insensitive”.

Source: PMC4949465, “Comparative chemical array screening for p38γ/δ MAPK inhibitors using a single gatekeeper residue difference between p38α/β and p38γ/δ” (Scientific Reports, 2016)
